Test results taken from patent US20170217982A1, “Compound isolated from Pseudolysimachion rotundum var. subintegrum, the composition comprising the same for treating allergic disease, inflammatory disease, asthma or chronic obstructive pulmonary disease and the use thereof” (YUNGJIN PHARMACEUTICAL CO., LTD, priority 2014, published 2017).
Where “and” joins values, the source holds several entries; their conditions need not be identical. Equal entries are not always repeated.

Tests used:
Format in all cases: cell-based, human
NF-kappa B = NF-kappa B luciferase reporter assay in H292 cells; settings: 10 μm, TNF-alpha 20 ng/ml
Method: NF-kappa B luciferase reporter assay was performed by following procedure disclosed in the literature (Pulin Che et al., Assay Drug Dev. Technol., 2012, 10, 61-68).
In order to establish the stable cells for NF-kappa B luciferase reporter assay, NF-kappa B response element was cloned into vector (pGL4.32 vector, E849A, Promega) according to the manufacture's protocol and infected to the cell (H292 cells, CRL-1848, ATCC) using by Lipofectamine 2000 (11668-019, Invitrogen). The infected cell was selected using by hygromycin (400 μg/ml) for 2 weeks and the colonies were individually cloned and proliferated. […] The test sample was pre-treated in a pre-determined concentration and 20 ng/ml of TNF-alpha was treated therewith for 12 hours. The activity of luciferase enzyme was determined by E6110 kit (OneGlo Luciferase Assay kit, Promega) and DMSO was used as a vehicle control.
The stably expressed H292 cells, a […] human bronchial epithelium cell, with luciferase reporter vector pGL4.32 (luc2P/NF-KB-RE/Hygro, Promega Company) were established prior to following experiment. […] The activation degree of luciferase was determined by One-glow Luciferase Assay system (Promega Company). […] The luminescence was determined by Microplate Luminometer LB 96V (EG&G Berthold company) for 0.5 sec and the result was shown in Table 5 and FIG. 3.

MUC5AC = assay: Inhibition of TNF-alpha induced MUC5AC mRNA expression in H292 cells (qRT-PCR); settings: TNF-α 20 ng/ml
Method: In order to determine the inhibitory effect on the expression of MUC5AC induced by TNF-alpha in H292 cell line, following test was performed:
The isolation of total RNA, cDNA synthesis and quantitative real-time PCR were performed by the method disclosed in the literature (Kim et al., J. Cell. Biochem. 2008, 104, 1906-1917).
In summary, total RNA was isolated using by TRIzol reagent (155596-026, Life Technologies) and the first strand cDNA was synthesized using by enzyme (Omniscript Reverse Transcriptase, 205113, Qiagen, Calif.). The quantitative real-time PCR amplification was performed using by apparatus 1 (S1000 Thermal cycler, Bio-rad, USA) and apparatus 2 (2× Greenstar master mix, Bioneer, Korea) according to the manufacture's manual.
Specifically, the reproduced amount of TNF-alpha induced MUC5AC was determined by Real-time polymerase chain reaction (real-time PCR), quantitative real time polymerase chain reaction (qPCR) and MUC5AC immunoassay. H292 cells were inoculated into 48 well plates in a concentration of 2×10^4 cells/well to adhere for 24 hours and the culture medium was replaced with new 0.1% FBS containing medium to culture for 24 hours. […]
In order to extract total RNA, RNA was extracted using by Trizol B (Invitrogen) and cDNA was synthesized using by Omniscript RT kit (Qiagen, GmbH, Hilden, Germany) after the quantification.

H292 cell = assay: Evaluation of cytotoxicity in H292 cell (CCK-8); settings: for H292 cell viability (%, mean ± variation): 24 hours, CCK-8
Method: In order to determine the cytotoxicity of inventive compound, following preliminary test was performed by the method disclosed in the literature (Shiyama et al., Talanta, 1997, 44, 1299-1305; Tominaga et al., Anal. Commun., 1999, 36, 47-50).
HT1080 (CRL-12012), H292 (CRL-1848) and murine EL4 cells (TIB-39) were purchased from company (American Type Culture Collection).
HT1080 (CRL-12012) and murine EL4 cells were cultured in DMEM medium (SB30243.01, Dulbecco's modified Eagle's medium; DMEM, HyClone) supplemented with 10% FBS (Fetal Bovine Serum; Gibco) and antibiotic (100 units/ml penicillin+100 units/ml streptomycin). H292 cell was cultured in RPMI medium (SH30027.01, RPMI 1640, Gibco) supplemented with 10% FBS and antibiotic. The cells were cultures under the condition of humidified 5% CO2 atmosphere at 37° C. PMA (P8139, Phorbol 12-myristate 13-acetate) was purchased from the company (Sigma Chemical Co., St. Louis, Mo.) and TNF-α is from the company (300-01A, PeproTech, NJ USA Inc.) to use in the experiment.
H292 cell line, a human hung mucosal cancer cell line, was suspended in 10% FBS-supplemented RPMI medium in a concentration of 5×10^4 cells/ml, and 100 μl of the suspension was inoculated into 96 well plates to adhere cell to the plate for 12 hours. Various concentrations of test sample (KS 534 compound) were treated therewith and cultured for 24 hours. 10 μL of CCK-8 solution was mixed with 90 μL of the medium and 100 μL of solution was added to each well. After reacting from 30 mins to 4 hours, the absorbance of the solution was determined at 570 nm. The cell viability was calculated according to following Math formulae 1 based on negative control group treated with 0.2% DMSO and the result was shown in Table 2.
Cell viability (%)=OD 570 nm (test group)/OD 570 nm (negative control group)×100 Math formulae 1

With O=C(CO)O[C@@H]1O[C@@H]2C[C@H]3[C@H](OC(=O)c4ccc(O)c(O)c4)[C@@H](Cl)[C@@](O)(CO2)[C@@H]13 [KS-534, (3R,5S,5aS,6R,7S,8R,8aS)-8-chloro-8a-hydroxy-5-(2-hydroxyacetoxy) hexahydro-1H-3,6-methanocyclopenta[e][1,3]dioxepin-7-yl3,4-dihydroxybenzoate] the “Inhibitory ratio (%) of NF-kappa B activity” value (NF-kappa B) was 36.65%, the “NF-kappa B activity (relative % comparing with TNF-alpha treatment group)” value (NF-kappa B) was 63.35% and 63.35 ± 6.18% and the “Expressed level of MUC5AC mRNA (Relative % comparing with that in TNF-alpha treatment group)” value (MUC5AC; 10 μM) was 58.47% and 58.47 ± 18.50%. The “Inhibitory ratio (%) of MUC5AC mRNA expression” value (MUC5AC; 10 μm) was 41.52%, the “H292 cell viability (%, mean ± variation)” value (H292 cell; 2.5 μm) was 101.88 ± 3.71% and the “H292 cell viability (%, mean ± variation)” value (H292 cell; 5 μm) was 102.46 ± 3.96%. For the same compound, the “H292 cell viability (%, mean ± variation)” value (H292 cell; 10 μm) was 99.89 ± 4.79%, the “H292 cell viability (%, mean ± variation)” value (H292 cell; 20 μm) was 97.87 ± 2.92% and the “cytotoxicity in H292 cell” value (H292 cell; at less than 20 μm) was “did not show cytotoxicity”.
